Results on 15 compounds are retold here after patent US6127355A (priority 1999, dated 2000).

Read-outs that look alike come from different tables or passages of the source.

One may read the IC50 as the midpoint of a concentration-inhibition curve. What is called mortality is the percentage killed. Low readings indicate a weak lethal effect, high ones a strong lethal effect.

Series [1] relates to murine leukemia cell line P388/0. In words: Murine Leukemia Model (In vivo P388). On the set-up: species or system mouse. The settings on record: ip, days 1-5; for Survival Rate %: survival at 40 days. Here is the method:
(§1) In this Example, the in vivo activity of some of the compounds prepared in accordance with the present invention was assessed using the Murine Leukemia Model and the Colorectal Xenograft model.
The compounds shown in the Table below were screened for in vivo activity against the murine leukemia cell line P388/0 (mouse, lymphoid neoplasm). The cell line was obtained from Southern Research Institute (Birmingham, Ala.) and grown in RPMI 1640 supplemented with 10% FBS. P388/0 cells were subcultured two times per week and log phase cultures (viability ≥95%/o) were used for all in vivo experiments. Female CD2F1 mice (Taconic Farms, Germantown, N.Y.) at 7-8 weeks of age were used for study. Following one week of acclimation, mice were implanted ip with P388/0 cells (5×10^5 cells/mouse) at designated day 0 (zero). The mice were randomly assigned to experimental groups (10-20 per group). The groups included Control groups and several which received one of the drugs or prodrugs. The mice were then dosed (500 μL, ip) for 5 consecutive days (days 1-5). Control groups received vehicle (intralipid or water). The mice were monitored for up to 40 days, and the treatment was evaluated and expressed as the percentage survival at 40 days.

In series [2] the test system is HT-29 (human colon carcinoma) cells. In words: cells. Type of series: cell-based. The settings on record: read-out: IC50 (nM) HT-29. The method, then: (§2) In this example, a series of in vitro assays were conducted to determine the IC50 for unmodified camptothecin, unmodified paclitaxel and several of the high molecular weight prodrugs prepared as set forth above.
(§3) All compounds were independently tested against one or more of the P388/0 (murine lymphoid neoplasm, Southern Research Institute), HT-29 (human colon carcinoma) and A549 (human lung adeno carcinoma) cell lines.
(§4) The P388/0 cells were grown in RPMI 1640 medium (Whittaker Bioproducts, Walkersville, Md.)+10% FBS (Hyclone Inc., Logan Utah). The HT-29 cells were grown in DMEM (GIBCOBRL)+10% FBS (Hyclone, Inc.). The A549 cells were grown in DMEM/F-12 (Biowhitaker)+10% FBS (Heat inactivated). Bioassays were performed in their respective media containing antibiotics and fungizone.
(§5) Camptothecin and paclitaxel were dissolved in DMSO and diluted to the appropriate concentration in culture media. The PEG-Camptothecin and PEG-paclitaxel prodrugs were dissolved in water and diluted to the appropriate concentrations in culture media.
(§6) The assays were performed in duplicate in 96-well microtiter cell culture plates. Two fold serial dilution of the compounds were done in the microtiter plates. Cells were detached by incubating with 0.1% Trypsin/Versene at 37°. Trypsin was inactivated by adding the appropriate media for each cell line containing 10% FBS. To each well of the microtiter plates, 10,000 cells were added. After three days, cell growth was measured by addition of a metabolic indicator dye, Alamar Blue, according to the manufacturer's protocol. The IC50 value for each test compound was determined and compared to the IC50 for the appropriate reference compound.
HT29 Human colon carcinoma cell line

The nature of series [3]: Colorectal Xenograft (In vivo HT-29). Further details: species or system human tumor in nu/nu mice. Conditions: mouse, in vivo, ip; week 5 (end of treatment); total active dose 62.5 mg/kg. Here is the method: as §1
(§7) Female nu/nu mice (Harlan Sprague Dawley, Madison, Wis.), 18-24 g and 10-14 weeks old, at onset of treatment were used. The solid tumor HT-29 (human, colon adenocarcinoma) was obtained from the ATCC (HTB 38) and grown in DMEM supplemented with 10% FBS. Cells were subcultured once a week and for in vivo experiments viabilities were ≥90%. Mice were housed in microisolator filtration racks, and maintained with filtered acidified water and sterile laboratory chow ad libitum. Following one week of acclimation, tumors were established by injecting 1×10^6 harvested HT-29 tumor cells in a single subcutaneous site, on the flank of mice in the left axillary region. The tumor injection site was observed twice weekly and measured once palpable. The tumor volume for each mouse was determined by measuring two dimensions with calipers and calculated using the formula: tumor volume=(length×width^2)/2. When tumors reached the average volume of 300 mm^3, the mice were divided into their experimental groups. The non-Control groups received Camptothecin 2.5 mg/kg/day, the prodrugs being dosed on the basis of camptothecin content. The mice were sorted to evenly distribute tumor size, grouped into 5 mice/cage, and ear punched for permanent identification. Mice receiving drugs were treated i.p. 5 times a week, Monday through Friday for 5 weeks with 500 μL of test article. Mouse weight and tumor size were measured at the beginning of study and weekly through week 7. The overall growth of tumors was expressed as the percent change in tumor size calculated by subtracting mean initial tumor volume from mean tumor volume at the end of the treatment and dividing by mean initial tumor volume.

Series [4] deals with solid tumor HT-29 (human, colon adenocarcinoma). In words: Colorectal Xenograft (In vivo HT-29). On the set-up: species or system human tumor in nu/nu mice. Conditions: total active dose 62.5 mg/kg, i.p. The method, then: as §1, §7
Series [5] deals with one or more of the P388/0, HT-29 and A549 cell lines. In words: cells. Type of series: cell-based. The method, then:
as §2, §3, §4, §5, §6
The IC50 values for some of the compounds formed in examples 47-53 were determined using the same process as that described above with regard to example 45 and compared to native camptothecin.

Series [6] concerns P388/0 (murine lymphoid neoplasm) cells. In words: cells. Type of series: cell-based. Conditions: read-out: IC50 (nM) P388. The method, then:
as §2, §3, §4, §5, §6
P-388 Murine leukemia cell line

Where [7] appears, read: cell line not stated, same process as example 45, read-out: IC50.

With `CC[C@@]1(O)C(=O)OCc2c1cc1n(c2=O)Cc2cc3ccccc3nc2-1` [Camptothecin, reference compound], in series [1] (total active dose 16 mg/kg), the “Survival Rate %” value is recorded as 80%. For the same compound, the IC50 in series [2] (Homo sapiens, HT-29, 72 h) worked out at 21 nM; in series [5], 7 nM; in series [6] (Mus musculus, P388, 72 h), 5 nM. This compound also registered a mortality at 840 h in series [3] of 50%. Besides, the “Body weight change (%)” value in series [4] (week 5 (end of treatment)) and in series [4] (week 7 (2 week post treatment)) was -3% each time. The “Tumor growth (%)” value is on record as -20% in series [4] (week 5 (end of treatment)) and 62% in series [4] (week 7 (2 week post treatment)).

Regarding `CC[C@@]1(OC(=O)n2ccnc2)C(=O)OCc2c1cc1n(c2=O)Cc2cc3ccccc3nc2-1` [Compound 54, camptothecin-20-O-carbonylimidazolyl carbonate], the IC50 in series [5] (read-out: IC50) was 69 nM.

Turning to `CC[C@@]1(OC(=O)Oc2ccc([N+](=O)[O-])cc2)C(=O)OCc2c1cc1n(c2=O)Cc2cc3ccccc3nc2-1` [Compound 55, camptothecin-20-O-paranitrophenyl carbonate], the half-inhibitory concentration (IC50) in series [5] (setting [7]) amounted to 365 nM.

Consider `CC[C@@]1(OC(=O)ON2C(=O)CCC2=O)C(=O)OCc2c1cc1n(c2=O)Cc2cc3ccccc3nc2-1` [Compound 56, camptothecin-20-O-N-hydroxysuccinimidyl carbonate], for which the half-inhibitory concentration (IC50) in series [5] (setting [7]) amounted to 1030 nM.

On to `CC[C@@]1(OC(=O)OC)C(=O)OCc2c1cc1n(c2=O)Cc2cc3ccccc3nc2-1` [Compound 59, camptothecin-20-O-methyl carbonate], for which, in series [5] (setting [7]), the IC50 was 11 nM.

Turning to `CC[C@@]1(OC(=O)OCC(C)C)C(=O)OCc2c1cc1n(c2=O)Cc2cc3ccccc3nc2-1` [Compound 60, camptothecin-20-O-isobutyryl carbonate], the IC50 in series [5] (read-out: IC50) worked out at 29 nM.

For `CC[C@@]1(O)C(=O)OCc2c1cc1n(c2=O)Cc2cc3c(CN(C)C)c(O)ccc3nc2-1` [Topotecan, reference compound], the IC50 in series [2] (72 h, HT-29 human colon carcinoma cell line, three days) was found to be 99 nM; in series [6] (Mus musculus, 72 h, P388 murine leukemia cell line, three days), 29 nM.

With “Bis-Camptothecin-N-Acetyl-PEG40kDa -20-O-Glycinate [Compound 37b]”, the figures for the IC50 in series [2] and in series [6] were 137 nM and 49 nM, respectively.

Consider “Bis-Camptothecin-N-PEG40kDa -20-O-Glycinate [Compound 37a]”, for which the IC50 in series [2] amounted to 110 nM; in series [6] it was 24 nM.

As to “Camptothecin-20-O-Glycinate PEG40kDa -Amide Derivative [Compound 48]”, in series [1] (total active dose 16 mg/kg), the “Survival Rate %” value is listed as 80%. Further, the “Tumor growth (%)” value in series [4] (week 5 (end of treatment)) is recorded as -80%; in series [4] (week 7 (2 week post treatment)) it was -96%.

Regarding “Camptothecin-20-O-Glycinate PEG40kDa Carbamate Derivative [Compound 49]”, the IC50 in series [2] was found to be 40 nM; in series [6] it was 33 nM.

With “Camptothecin-20-O-ester of 2-PEG40k N-methylcarbamoyl Acetic Acid [Compound 5b]”, the IC50 in series [2] came out at 153 nM; in series [6], 18 nM.

Consider “Camptothecin-20-O-ester of 2-PEG40kDa Carbamoylacetic Acid [Compound 5a]”, for which the IC50 turned out to be 30 nM in series [2] (HT-29 human colon carcinoma cell line, three days) and 7 nM in series [6] (P388 murine leukemia cell line, three days).

As for “Camptothecin-20-O-ester of PEG20kDa diacid”, in series [1] (total active dose 11.4 mg/kg), the “50% survival” value is 21 days and the “Survival Rate %” value amounted to 10%.

Take “camptothecin-20-O-PEG5kDa carbamate [Compound 57]”: the IC50 in series [5] (setting [7]) was 912 nM.
